Counter-ions that a name gives are not always drawn. Like-named read-outs stand apart in the source and are kept apart here.
Key:
cancer cell lines = assay: Cell viability analysis (WST-1) on cancer cell lines; type: cell-based, human; settings: drug 10 μM, 72 hours, WST-1; Table 3
[1] = tested on: HI650 (Lung Adenocarcinoma); assay: Cell viability analysis, lung cancer HI650; type: cell-based, human; settings: Homo sapiens, NCI-H1650, 72 h
[2] = tested on: A549 (Lung Adenocarcinoma); assay: Cell viability analysis, lung cancer A549; type: cell-based, human; settings: Homo sapiens, A549, 72 h
[3] = tested on: AGS (Gastric Adenocarcinoma); assay: Cell viability analysis, gastric cancer AGS; type: cell-based, human; settings: Homo sapiens, 72 h
[4] = tested on: MKN-45 (Gastric Adenocarcinoma); assay: Cell viability analysis, gastric cancer MKN-45; type: cell-based, human; settings: Homo sapiens, MKN-45, 72 h
[5] = tested on: Hep3B (hepatocellular carcinoma); assay: Cell viability analysis, hepatic cancer Hep3B; type: cell-based, human; settings: Homo sapiens, 72 h; Hep3B; repeated experiment; read-out: The results of antibiotic drug inhibiting cancer cell lines (cell viability analysis), Hep3B
[6] = tested on: LoVo (Colorectal Adenocarcinoma); assay: Cell viability analysis, colon cancer LoVo; type: cell-based, human; settings: Homo sapiens, LoVo, 72 h
[7] = tested on: A375 (Amelanotic Melanoma); assay: Cell viability analysis, skin cancer A375; type: cell-based, human; settings: Homo sapiens, A-375, 72 h
[8] = tested on: BCC (basal cell carcinoma); assay: Cell viability analysis, skin cancer BCC; type: cell-based, human; settings: Homo sapiens, 72 h; BCC; repeated experiment; read-out: The results of antibiotic drug inhibiting cancer cell lines (cell viability analysis), BCC
[9] = tested on: HeLa (Cervix Adenocarcinoma); assay: Cell viability analysis, cervical cancer HeLa; type: cell-based, human; settings: Homo sapiens, HeLa, 72 h, HeLa
[10] = tested on: PC3 (p53−) (Prostate Adenocarcinoma); assay: Cell viability analysis, prostate cancer PC3; type: cell-based, human; settings: Homo sapiens, 72 h
[11] = tested on: TSGH-8301 (Urinary Bladder Carcinoma); assay: Cell viability analysis, bladder cancer TSGH-8301; type: cell-based, human; settings: Homo sapiens, 72 h
T24 = assay: Cell viability analysis, bladder cancer T24; type: cell-based, human; settings: Homo sapiens, T-24, 72 h; T24; repeated experiment; read-out: The results of antibiotic drug inhibiting cancer cell lines (cell viability analysis), T24
[12] = tested on: MCF7 (Mammary Gland, Adenocarcinoma); assay: Cell viability analysis, breast cancer MCF7; type: cell-based, human; settings: Homo sapiens, MCF7, 72 h
[13] = tested on: MDA-MB-231 (Mammary Gland, Adenocarcinoma); assay: Cell viability analysis, breast cancer MDA-MB-231; type: cell-based, human; settings: Homo sapiens, MDA-MB-231, 72 h; MDA-MB231; repeated experiment; read-out: The results of antibiotic drug inhibiting cancer cell lines (cell viability analysis), MDA-MB231
BxPC-3 = assay: Cell viability analysis, pancreatic cancer BxPC-3; type: cell-based, human; settings: Homo sapiens, 72 h; BxPC-3; repeated experiment; read-out: The results of antibiotic drug inhibiting cancer cell lines (cell viability analysis), BxPC-3
AsPC-1 = assay: Cell viability analysis, pancreatic cancer AsPC-1; type: cell-based, human; settings: Homo sapiens, ASPC1, 72 h; AsPC-1; repeated experiment; read-out: The results of antibiotic drug inhibiting cancer cell lines (cell viability analysis), AsPC-1
NIH: OVCAR-3 = assay: Cell viability analysis, ovarian cancer NIH: OVCAR-3; type: cell-based, human; settings: Homo sapiens, 72 h; NIH-OVCAR-3; repeated experiment; read-out: The results of antibiotic drug inhibiting cancer cell lines (cell viability analysis), NIH-OVCAR-3
TOV-21G = assay: Cell viability analysis, ovarian cancer TOV-21G; type: cell-based, human; settings: Homo sapiens, TOV21G, 72 h; TOV-21G; repeated experiment; read-out: The results of antibiotic drug inhibiting cancer cell lines (cell viability analysis), TOV-21G
[14] = tested on: SAS (Tongue squamous cell carcinoma); assay: Cell viability analysis, tongue cancer SAS; type: cell-based, human; settings: Homo sapiens, 72 h; SAS; repeated experiment; read-out: The results of antibiotic drug inhibiting cancer cell lines (cell viability analysis), SAS
U-2OS = assay: Cell viability analysis, osteosarcoma U-2OS; type: cell-based, human; settings: Homo sapiens, 72 h; U2OS; repeated experiment; read-out: The results of antibiotic drug inhibiting cancer cell lines (cell viability analysis), U2OS
[15] = tested on: 786-O (Renal adenocarcinoma); assay: Cell viability analysis, renal cancer 786-O; type: cell-based, human; settings: Homo sapiens, 786-0, 72 h; 786-O; repeated experiment; read-out: The results of antibiotic drug inhibiting cancer cell lines (cell viability analysis), 786-O
[16] = tested on: HL-60 (Acute Promyelocytic Leukemia); assay: Cell viability analysis, leukemia HL-60; type: cell-based, human; settings: Homo sapiens, HL-60, 72 h, drug 10 μM, 72 hours, WST-1, OD450 nm; read-out: cell viability (survival rate), HL-60
[17] = tested on: HCT116 (p53+) (Colorectal Carcinoma)
[18] = H1650, repeated experiment, read-out: The results of antibiotic drug inhibiting cancer cell lines (cell viability analysis), H1650
[19] = drug 10 μM, 72 hours, WST-1, OD450 nm, read-out: cell viability (survival rate), H1650
[20] = A549, repeated experiment, read-out: The results of antibiotic drug inhibiting cancer cell lines (cell viability analysis), A549
[21] = drug 10 μM, 72 hours, WST-1, OD450 nm, read-out: cell viability (survival rate), A549
[22] = AGS, repeated experiment, read-out: The results of antibiotic drug inhibiting cancer cell lines (cell viability analysis), AGS
[23] = drug 10 μM, 72 hours, WST-1, OD450 nm, read-out: cell viability (survival rate), AGS
[24] = MKN-45, repeated experiment, read-out: The results of antibiotic drug inhibiting cancer cell lines (cell viability analysis), MKN-45
[25] = drug 10 μM, 72 hours, WST-1, OD450 nm, read-out: cell viability (survival rate), MKN-45
[26] = read-out: The results of antibiotic drug inhibiting cancer cell lines (cell viability analysis), LoVo, repeated experiment
[27] = read-out: cell viability (survival rate), LoVo, drug 10 μM, 72 hours, WST-1, OD450 nm
[28] = A375, repeated experiment, read-out: The results of antibiotic drug inhibiting cancer cell lines (cell viability analysis), A375
[29] = drug 10 μM, 72 hours, WST-1, OD450 nm, read-out: cell viability (survival rate), A375
[30] = repeated experiment, read-out: The results of antibiotic drug inhibiting cancer cell lines (cell viability analysis), HeLa
[31] = drug 10 μM, 72 hours, WST-1, OD450 nm, read-out: cell viability (survival rate), HeLa
[32] = PC-3, repeated experiment, read-out: The results of antibiotic drug inhibiting cancer cell lines (cell viability analysis), PC-3
[33] = drug 10 μM, 72 hours, WST-1, OD450 nm, read-out: cell viability (survival rate), PC3
[34] = TSGH-8301, repeated experiment, read-out: The results of antibiotic drug inhibiting cancer cell lines (cell viability analysis), TSGH-8301
[35] = drug 10 μM, 72 hours, WST-1, OD450 nm, read-out: cell viability (survival rate), TSGH
[36] = MCF-7, repeated experiment, read-out: The results of antibiotic drug inhibiting cancer cell lines (cell viability analysis), MCF-7
[37] = drug 10 μM, 72 hours, WST-1, OD450 nm, read-out: cell viability (survival rate), MCF7

CN(C)CCC=C1c2ccccc2CCc2ccccc21 [Amitriptyline HCl]
inhibition effect on different cancer cell lines (cancer cell lines): significant inhibition effect
viability at 10 µM [1, 18]: 111%
viability at 10 µM [1, 19]: 64.4%
viability at 10 µM [2, 20]: 73.3%
viability at 10 µM [2, 21]: 69.3%
viability at 10 µM [3, 22]: 146%
viability at 10 µM [3, 23]: 61.5%
viability at 10 µM [4, 24]: 135%
viability at 10 µM [4, 25]: 102%
viability at 10 µM [5]: 124%
viability at 10 µM [6, 26]: 90.5%
viability at 10 µM [6, 27]: 96.5%
viability at 10 µM [7, 28]: 94.3%
viability at 10 µM [7, 29]: 84.8%
viability at 10 µM [8]: 113%
viability at 10 µM [9, 30]: 111%
viability at 10 µM [9, 31]: 90.6%
viability at 10 µM [10, 32]: 99.4%
viability at 10 µM [10, 33]: 61.9%
viability at 10 µM [11, 34]: 157%
viability at 10 µM [11, 35]: 133%
viability at 10 µM (T24): 97.5%
viability at 10 µM [12, 36]: 67.7%
viability at 10 µM [12, 37]: 64.8%
viability at 10 µM [13]: 106%
viability at 10 µM (BxPC-3): 67.2%
viability at 10 µM (AsPC-1): 73.1%
viability at 10 µM (NIH: OVCAR-3): 104%
viability at 10 µM (TOV-21G): 118%
viability at 10 µM [14]: 67.5%
viability at 10 µM (U-2OS): 68.5%
viability at 10 µM [15]: 85.5%
viability at 10 µM [16]: 81.4%

CC(C)/N=c1\cc2n(-c3ccc(Cl)cc3)c3ccccc3nc-2cc1Nc1ccc(Cl)cc1 [Clofazimine]
inhibition effect on different cancer cell lines (cancer cell lines): significant inhibition effect
viability at 10 µM [1, 18]: 92.2%
viability at 10 µM [1, 19]: 74.4%
viability at 10 µM [2, 20]: 87.1%
viability at 10 µM [2, 21]: 49.5%
viability at 10 µM [3, 22]: 78.8%
viability at 10 µM [3, 23]: 64.2%
viability at 10 µM [4, 24]: 108%
viability at 10 µM [4, 25]: 53.1%
viability at 10 µM [5]: 91.6%
viability at 10 µM [6, 26]: 83.4%
viability at 10 µM [6, 27]: 68.3%
viability at 10 µM [7, 28]: 81.2%
viability at 10 µM [7, 29]: 37.3%
viability at 10 µM [8]: 72.9%
viability at 10 µM [9, 30]: 94.3%
viability at 10 µM [9, 31]: 59.3%
viability at 10 µM [10, 32]: 106%
viability at 10 µM [10, 33]: 53.2%
viability at 10 µM [11, 34]: 111%
viability at 10 µM [11, 35]: 51.7%
viability at 10 µM (T24): 74.1%
viability at 10 µM [12, 36]: 74.2%
viability at 10 µM [12, 37]: 51.2%
viability at 10 µM [13]: 102%
viability at 10 µM (BxPC-3): 72.2%
viability at 10 µM (AsPC-1): 76.6%
viability at 10 µM (NIH: OVCAR-3): 97.3%
viability at 10 µM (TOV-21G): 65.1%
viability at 10 µM [14]: 75.2%
viability at 10 µM (U-2OS): 80.6%
viability at 10 µM [15]: 82.5%
viability at 10 µM [16]: 85%

COc1c(C)c2c(c(O)c1C/C=C(\C)CCC(=O)O)C(=O)OC2 [Mycophenolic (Mycophenolate), Mycophenolic]
viability at 10 µM [1, 18]: 54.5%
viability at 10 µM [1, 19]: 83.1%
viability at 10 µM [2, 20]: 39%
viability at 10 µM [2, 21]: 80.6%
viability at 10 µM [3, 22]: 31.7%
viability at 10 µM [3, 23]: 57.8%
viability at 10 µM [4, 24]: 64.9%
viability at 10 µM [4, 25]: 61.7%
viability at 10 µM [5]: 66.8%
viability at 10 µM [6, 26]: 58.6%
viability at 10 µM [6, 27]: 70.1%
viability at 10 µM [7, 28]: 28.9%
viability at 10 µM [7, 29]: 57.4%
viability at 10 µM [8]: 44.6%
viability at 10 µM [9, 30]: 46.1%
viability at 10 µM [9, 31]: 90.7%
viability at 10 µM [10, 32]: 55.4%
viability at 10 µM [10, 33]: 74.3%
viability at 10 µM [11, 34]: 57.5%
viability at 10 µM [11, 35]: 40.3%
viability at 10 µM (T24): 48.2%
viability at 10 µM [12, 36]: 70.3%
viability at 10 µM [12, 37]: 120%
viability at 10 µM [13]: 56.9%
viability at 10 µM (BxPC-3): 45.7%
viability at 10 µM (AsPC-1): 48.1%
viability at 10 µM (NIH: OVCAR-3): 59%
viability at 10 µM (TOV-21G): 40.3%
viability at 10 µM [14]: 43.2%
viability at 10 µM (U-2OS): 43.2%
viability at 10 µM [15]: 24.7%
viability at 10 µM [16]: 65.6%
viability [17]: 43.1%

— patent US10105357B2, “Indication of antibiotic drugs for preparation of cancer inhibition pharmaceutical composition” (LAUNX BIOMEDICAL CO., LTD., priority 2014, dated 2018)
